Data from patent US8361971B2, “Tablet formulation of ezatiostat” (Telik, Inc., priority 2010, dated 2013).

How the values were obtained:
Format in all cases: physicochemical
[1] = X-ray diffraction, polymorphic form in tablets; conditions: hydrochloride; for X-ray Diffraction: tablets
Experimental: X-ray powder diffraction (XRPD) analyses were performed on a Shimadzu XRD-6000 X-ray powder diffractometer using Cu Kα radiation from a long fine focus X-ray tube, operated at 40 kV, 40 mA. The divergence and scattering slits were set at 1° and the receiving slit was set at 0.15 mm. Diffracted radiation was detected by a NaI scintillation detector. A θ-2θ continuous scan at 3°/min (0.4 sec/0.02° step) from 2.5°-40° 2θ was used. A silicon standard was analyzed to check alignment of the instrument. Data were collected and analyzed using XRD-6000 v.4.1 software.
Stress experiments: solids were stressed under different temperature and/or relative humidity (RH) environments for a measured time period. Specific RH values were achieved by placing the sample inside sealed chambers containing saturated salt solutions. Samples were analyzed by XRPD immediately after removal from the stress environment.
(§1) As described above, form E converts to form B simply during tableting.
(§2) Tablets of ansolvate form D, were packaged with and without desiccant (Sorb-It Cannister, 1 gram). Fifty tablets were packaged in a round, white 1500 mL bottle with a screw cap over an induction seal. Impurities were assayed by HPLC. When stored at 25° C./60% RH with desiccant for 3 months, no increase in total impurities was observed. When stored at 40° C./75% RH with desiccant for 3 months, total impurities increased only by 0.3%. When stored at 40° C./75% RH without desiccant for 3 months, total impurities still increased by 1.1%. As tabulated below, the presence of desiccant appears to further increase the stability of the ansolvate form D. Even though the dissolution rate of tablets containing polymorph D from one batch was below specification (<70%) at an initial test as well as after 3 months at 25° C./60% RH with desiccant, the subsequent batches met the required specification.

[2] = Assay and impurities by HPLC of tablets on storage; design: key to Individual Impurities RRT = 0.74 / Individual Impurities RRT = 0.83 / TLK 236 RRT = 0.88 / Individual Impurities RRT = 0.94 / Individual Impurities RRT = 0.96 / Total impurities / Individual Impurities RRT = 0.80 / Individual Impurities RRT = 0.81 / Individual Impurities RRT = 0.86 / Individual Impurities RRT = 0.99: impurity content in %; conditions: hydrochloride
Source text: As used herein, “impurity” refers to one or more of: TLK 236, another polymorphic form of ezatiostat hydrochloride including without limitation form A, B, C, E, or F, and any other compound other than ezatiostat hydrochloride ansolvate, which may be identified by HPLC. TLK 236 is a monoester derived from the partial hydrolysis of ezatiostat where the phenyl glycine moiety remains esterified.
as §1, §2

[3] = Tablet dissolution (Q at 45 min); conditions: tablets, hydrochloride
Source text: Without being bound by theory, a higher dissolution rate relates to a higher amount of the active agent in the gastric fluid, which in turn relates to higher bioavailability of the active agent. A high bioavailability is desired, for example and without limitation, for reducing inter patient variability of drug exposure for a orally administered agent such as ezatiostat hydrochloride. […] The aqueous solubility can be measured in a variety of aqueous solvents, including without limitation, water, 0.9% aqueous NaCl, 5% dextrose for injection, phosphate buffered saline, and generally aqueous solutions having a pH of less than about 5. Such solvents may include suitable buffers and other salts. […]
as §2

[4] = Water content of tablets on storage; conditions: hydrochloride
Experimental: Karl Fischer analyses for water determination were performed on a Mettler Toledo DL39 Karl Fischer titrator. About 10-15 mg of sample was placed in the KF titration vessel containing approximately 100 mL of Hydranal®—Coulomat AD reagent and mixed for 60 seconds to ensure dissolution. The dissolved sample was then titrated by means of a generator electrode which produces iodine by electrochemical oxidation. […]
as §2

[5] = Description (appearance) of tablets on storage
Experimental: as §2

[6] = Assay and impurities by HPLC of tablets on storage; design: key to Individual Impurities RRT = 0.74 / TLK 236 RRT = 0.88 / Individual Impurities RRT = 0.96 / Total impurities: impurity content in %; conditions: 6 Month at 40° C./75% RH without desiccant, hydrochloride
[7] = 3 Month at 40° C./75% RH without desiccant
[8] = 6 Month at 40° C./75% RH without desiccant

X-ray Diffraction [1, 7]: Polymorph A
X-ray Diffraction [1, 8]: Polymorph A
X-ray Diffraction ([1]; Initial): Polymorph A
Assay (HPLC) [2, 7]: 94.1 % Label Claim
Individual Impurities RRT = 0.74 [2, 7]: 0.16
Individual Impurities RRT = 0.80 [2, 7]: 0.08
Individual Impurities RRT = 0.81 [2, 7]: 0.07
Individual Impurities RRT = 0.83 [2, 7]: 0.10
Individual Impurities RRT = 0.94 [2, 7]: 0.07
Individual Impurities RRT = 0.96 [2, 7]: 0.16
Individual Impurities RRT = 0.99 [2, 7]: 0.07
TLK 236 RRT = 0.88 [2, 7]: 1.99
Total impurities [2, 7]: 2.7
Individual Impurities RRT = 0.80 [2, 8]: 0.14
Individual Impurities RRT = 0.81 [2, 8]: 0.05
Assay (HPLC) ([2]; Initial): 97.2 % Label Claim
Individual Impurities RRT = 0.74 ([2]; Initial): 0.13
Individual Impurities RRT = 0.83 ([2]; Initial): 0.46
Individual Impurities RRT = 0.96 ([2]; Initial): 0.16
TLK 236 RRT = 0.88 ([2]; Initial): 0.45
Total impurities ([2]; Initial): 1.2
Dissolution, Mean at 45 min [3, 7]: Mean = 74 % of label claim
Dissolution, Mean at 45 min [3, 8]: Mean = 71 % of label claim
Dissolution, Mean at 45 min ([3]; Initial): Mean = 12 % of label claim
Water Content [4, 7]: 1.7%
Water Content [4, 8]: 1.9%
Water Content ([4]; Initial): 2.1%
Description [5, 7]: Off-white
Description ([5]; 6 Month at 40° C./75% RH without desiccant, hydrochloride): Off-white
Description ([5]; Initial): White round
Assay (HPLC) [6]: 91.5 % Label Claim
Individual Impurities RRT = 0.59/0.62 [6]: 0.07
Individual Impurities RRT = 0.74 [6]: 0.15
Individual Impurities RRT = 0.96 [6]: 0.21
TLK 236 RRT = 0.88 [6]: 2.92
Total impurities [6]: 3.5
SMILES: CCOC(=O)[C@@H](N)CCC(=O)N[C@@H](CSCc1ccccc1)C(=O)N[C@@H](C(=O)OCC)c1ccccc1.Cl [Polymorph Form A, ezatiostat hydrochloride]
polymorphic conversion during tablet manufacture ([1]; during tablet manufacture, listed as solvate form A): converting into a mixture of forms A and D during manufacture
